Tests used:
PDE4A = target: T1, PDE4A (Homo sapiens, UniProt P27815); experiment: PDE4A inhibition, IMAP fluorescence polarization protocol; format: biochemical
T1 construct: purchased MDS PHARMA
Protocol: (§1) The enzymatic reactions were carried at room temperature in a 96-well black plate by co-incubating 25 μL of 200 nM FAM-cAMP (R7513), 5 μL of putative inhibitory compounds and 20 μL of the PDE4 isoform dissolved in assay buffer (R7364) for 1 h. All enzymes were obtained from human recombinant sources (MDS PHARMA), whereas the other reagents were purchased from Molecular Devices. […] PDE4 inhibitors were dissolved in dimethyl sulfoxide (DMSO) at a final concentration of 0.1%.
(§2) The inhibitory activities of the new sulfonamide derivatives were evaluated for their selectivity against the four isoforms of human PDE4, i.e. PDE4A, PDE4B, PDE4C, and PDE4D, using an IMAP-FP protocol.

PDE4B = target: T2, PDE4B (Homo sapiens, UniProt Q07343); experiment: PDE4B inhibition, IMAP fluorescence polarization protocol; format: biochemical
T2 construct: purchased MDS PHARMA
Protocol: as §1, §2

PDE1B = target: T3, PDE1B (Homo sapiens, UniProt Q01064); experiment: PDE selectivity profile evaluated by CEREP; format: biochemical; conditions: 10 μM; data not shown
T3 construct: CEREP
Protocol: (§3) The selectivity profile of compound 6a (LASSBio-448) toward the human PDE1, PDE2, PDE5-PDE8, PDE10 and PDE11 was evaluated by CEREP.

PDE2A = target: T4, PDE2A (Homo sapiens, UniProt O00408); experiment: PDE selectivity profile evaluated by CEREP; format: biochemical; conditions: 10 μM; data not shown
T4 construct: CEREP
Protocol: as §3

PDE3 = PDE3 activity inhibition; format: biochemical; conditions: 10 μM
guinea-pig trachea = experiment: Tracheal smooth muscle contraction in vitro induced by carbachol; conditions: 100 μM, S1A Fig
Protocol: Tracheas from guinea pigs were obtained and prepared as described previously. An initial tension of 1 g was applied to the tracheas for 60 min to obtain a constant resting tension. To confirm the viability of the preparation, the response to carbachol (2.5 μM) was recorded. After washout of carbachol and re-establishement of the baseline resting tension, tissues were preincubated with LASSBio-448 (100 μM) or vehicle (DMSO 0.1%) 15 min before re-exposed to cumulative addition of carbachol (10^−8–10^−4 M). The tracheal rings were pretreated 10 min before application of LASSBio-448 with 100 μM SQ22536 (adenylyl cyclase inhibitor). Stimulation-induced isometric contractile responses were measured with a force-displacement transducer (Ugo Basile, Comerio, Italy) and the readout used to assess contractility was obtained by isolated organ data acquisition software (Proto 5; Letica Scientific Instruments, Barcelona, Spain). Contractile responses were expressed as a percentage of the maximal contraction induced by 2.5 μM carbachol.

A/J mice [1] = experiment: Short-term murine model of asthma (OVA provocations at days 19 and 20), prophylactic treatment; format: in vivo; conditions: 100 mg/Kg oral, 1 h before each OVA challenge, 24 h after last provocation
Protocol: Sensitization was performed by means of a subcutaneous injection of 50 μg ovalbumin (OVA) (grade V; Sigma-Aldrich, St. Louis, MO) adsorbed to 5 mg of Al(OH)3 in 0.2 mL of sterile 0.9% NaCl (saline) at days 0 and 14. Intranasal OVA provocations (25 μg /25 μL saline) were performed at 19 and 20 days post-sensitization under isofluorane volatile anaesthesia (Cristalia, São Paulo, Brazil). Alternatively, sensitization as described above were done at days 0 and 7, while the OVA provocations were carried out at days 14, 21, 28 and 35 [39]. Negative control groups were represented by sensitized mice in which allergen was replaced by saline as a challenge. […]
The EPO activity present in lung tissue was determined with a colorimetric assay as described by Strath et al. (1985), with minor modifications. […] The optical density reading was performed on the SpectraMax M5 spectrophotometer (Molecular Devices) at a wavelength of 492 nm.
Twenty-four hours after the last challenge the animals were killed by an over dose of thiopental (200 mg/kg, i.p.) and bronchoalveolar lavage (BAL) was performed three times by intratracheal instillation of 500 μL of PBS and EDTA (10 mM) through a trachea cannula and gently aspirating the fluid. […] Total leukocyte numbers were measured in Neubauer chambers using light microcopy after diluting the samples in Türk solution (2% acetic acid). […]

A/J mice [2] = experiment: Duration of xylazine/ketamine anesthesia (behavioral correlate of emesis); format: in vivo
Protocol: This assessment was carried out as previously reported. […] The animals were placed in dorsal position and their spontaneous return to the prone position was used as an endpoint to determine anesthesia duration.

[3] = 1 μM, mean ± SEM, 3 experiments
[4] = recombinant enzyme, mean ± SEM of three measurements

T1 sequence (P27815 1-647 isoform P27815-4): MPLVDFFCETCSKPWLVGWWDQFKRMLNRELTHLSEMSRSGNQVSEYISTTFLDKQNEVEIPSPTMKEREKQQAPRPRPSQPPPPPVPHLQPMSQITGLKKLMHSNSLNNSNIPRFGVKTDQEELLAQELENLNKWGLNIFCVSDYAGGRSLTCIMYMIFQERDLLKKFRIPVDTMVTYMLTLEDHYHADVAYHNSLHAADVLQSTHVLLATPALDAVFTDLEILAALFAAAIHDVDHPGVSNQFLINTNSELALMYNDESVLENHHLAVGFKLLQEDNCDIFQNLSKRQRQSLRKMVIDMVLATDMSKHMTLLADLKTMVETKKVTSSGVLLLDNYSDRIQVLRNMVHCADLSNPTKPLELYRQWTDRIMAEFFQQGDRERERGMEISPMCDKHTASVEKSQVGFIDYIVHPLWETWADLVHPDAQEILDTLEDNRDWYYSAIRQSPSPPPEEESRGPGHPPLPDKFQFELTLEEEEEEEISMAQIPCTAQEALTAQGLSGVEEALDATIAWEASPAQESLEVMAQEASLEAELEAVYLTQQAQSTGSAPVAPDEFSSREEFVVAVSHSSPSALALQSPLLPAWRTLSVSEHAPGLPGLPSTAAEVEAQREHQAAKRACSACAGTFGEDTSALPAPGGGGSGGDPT
T2 sequence (Q07343 whole entry): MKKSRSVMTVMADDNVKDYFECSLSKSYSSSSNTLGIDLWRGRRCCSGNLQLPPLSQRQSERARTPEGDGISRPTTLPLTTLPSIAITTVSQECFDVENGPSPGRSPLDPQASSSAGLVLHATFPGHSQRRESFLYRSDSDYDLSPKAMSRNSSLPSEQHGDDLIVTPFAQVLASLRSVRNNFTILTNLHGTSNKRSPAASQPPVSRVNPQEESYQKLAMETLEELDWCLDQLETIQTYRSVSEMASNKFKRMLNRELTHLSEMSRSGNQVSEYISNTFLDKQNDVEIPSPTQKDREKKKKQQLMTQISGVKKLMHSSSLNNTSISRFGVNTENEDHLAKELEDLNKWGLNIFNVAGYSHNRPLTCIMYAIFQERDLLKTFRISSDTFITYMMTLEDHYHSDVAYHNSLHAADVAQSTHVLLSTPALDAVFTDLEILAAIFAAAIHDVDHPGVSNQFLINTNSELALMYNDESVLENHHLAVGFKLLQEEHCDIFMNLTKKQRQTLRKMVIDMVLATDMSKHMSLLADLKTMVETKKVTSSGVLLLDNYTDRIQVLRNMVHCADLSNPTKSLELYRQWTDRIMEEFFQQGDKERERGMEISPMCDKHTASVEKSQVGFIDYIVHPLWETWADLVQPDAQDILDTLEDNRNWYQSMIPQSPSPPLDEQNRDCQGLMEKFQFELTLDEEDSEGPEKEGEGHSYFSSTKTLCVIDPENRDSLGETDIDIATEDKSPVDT
T3 sequence (Q01064 whole entry): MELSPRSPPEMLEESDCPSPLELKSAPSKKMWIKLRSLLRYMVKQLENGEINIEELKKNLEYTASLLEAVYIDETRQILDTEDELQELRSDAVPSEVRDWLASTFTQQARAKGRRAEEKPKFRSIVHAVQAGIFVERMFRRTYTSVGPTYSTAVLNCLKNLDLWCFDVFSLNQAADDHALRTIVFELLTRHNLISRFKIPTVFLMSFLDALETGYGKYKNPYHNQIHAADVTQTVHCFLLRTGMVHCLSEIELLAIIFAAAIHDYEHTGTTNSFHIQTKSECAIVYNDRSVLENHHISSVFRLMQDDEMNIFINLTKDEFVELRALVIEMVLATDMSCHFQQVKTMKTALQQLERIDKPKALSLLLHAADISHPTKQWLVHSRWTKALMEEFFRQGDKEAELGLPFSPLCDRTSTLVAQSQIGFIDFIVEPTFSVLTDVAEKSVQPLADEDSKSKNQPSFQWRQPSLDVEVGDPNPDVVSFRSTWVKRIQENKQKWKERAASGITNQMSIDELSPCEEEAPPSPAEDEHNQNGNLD
T4 sequence (O00408 whole entry): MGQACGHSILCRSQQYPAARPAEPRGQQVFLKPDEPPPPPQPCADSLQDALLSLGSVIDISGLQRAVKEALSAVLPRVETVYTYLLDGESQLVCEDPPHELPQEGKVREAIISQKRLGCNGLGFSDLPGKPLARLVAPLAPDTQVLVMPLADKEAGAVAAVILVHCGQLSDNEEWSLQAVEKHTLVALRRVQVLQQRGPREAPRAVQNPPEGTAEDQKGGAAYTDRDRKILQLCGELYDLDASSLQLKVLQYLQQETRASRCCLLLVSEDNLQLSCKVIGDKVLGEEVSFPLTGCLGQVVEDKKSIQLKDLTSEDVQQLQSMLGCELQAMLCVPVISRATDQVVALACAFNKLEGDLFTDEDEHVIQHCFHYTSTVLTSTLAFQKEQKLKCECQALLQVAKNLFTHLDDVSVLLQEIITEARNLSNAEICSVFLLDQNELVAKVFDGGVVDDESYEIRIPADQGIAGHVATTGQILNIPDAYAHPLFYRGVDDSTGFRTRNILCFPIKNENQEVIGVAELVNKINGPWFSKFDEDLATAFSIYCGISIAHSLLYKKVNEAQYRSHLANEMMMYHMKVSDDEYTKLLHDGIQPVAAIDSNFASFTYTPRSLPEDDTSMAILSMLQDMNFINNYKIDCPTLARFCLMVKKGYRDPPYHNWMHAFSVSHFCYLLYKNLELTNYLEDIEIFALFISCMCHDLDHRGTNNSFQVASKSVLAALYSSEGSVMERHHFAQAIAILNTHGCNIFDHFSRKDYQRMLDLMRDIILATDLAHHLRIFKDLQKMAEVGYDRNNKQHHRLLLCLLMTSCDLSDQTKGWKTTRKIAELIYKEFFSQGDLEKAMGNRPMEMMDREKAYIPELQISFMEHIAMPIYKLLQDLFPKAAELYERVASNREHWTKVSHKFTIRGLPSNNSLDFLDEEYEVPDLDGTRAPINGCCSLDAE

- PDE4A1A inhibition (PDE4A; [3]): able to inhibit
- inhibition at 1 µM (PDE4A; 1 μM, mean ± SEM, 3 experiments, read-out: PDE4A1A inhibition): 36.5 ± 0.7%
- IC50 (PDE4A; [4]): 700 ± 70 nM
- PDE4B1 inhibition (PDE4B; [3]): able to inhibit
- inhibition at 1 µM (PDE4B; 1 μM, mean ± SEM, 3 experiments, read-out: PDE4B1 inhibition): 31 ± 1.1%
- IC50 (PDE4B; [4]): 1400 ± 90 nM
- inhibition of PDE1B (PDE1B): unable to inhibit
- inhibition of PDE2A (PDE2A): unable to inhibit
Structure (SMILES): COc1ccc(CCNS(=O)(=O)c2cc3c(cc2C)OCO3)cc1OC [6a (LASSBio-448), N-(3,4-dimethoxyphenethyl)-6-methylbenzo[d][1, 3]dioxole-5-sulfonamide]
- inhibition of PDE3 activity (PDE3): failed to inhibit
- tracheal contraction induced by cumulative carbachol (guinea-pig trachea): inhibited
- relaxant effect after pre-treatment with SQ22,536 (guinea-pig trachea; pre-treatment with 100 μM SQ22,536 (adenylyl cyclase inhibitor)): clearly abrogated
- eosinophil levels in bronchoalveolar lavage fluid (A/J mice [1]; Fig 4A): clearly prevented the up-regulation
- eosinophil levels in lung tissue homogenates (EPO colorimetric assay) (A/J mice [1]; Fig 4B): clearly prevented the up-regulation
- reduction of sleep time (duration of xylazine/ketamine anesthesia) (A/J mice [2]; 11 μmol/Kg oral): 24.1%
- reduction of sleep time (duration of xylazine/ketamine anesthesia) (A/J mice [2]; 27 μmol/Kg oral): 26.6%
- reduction of sleep time (duration of xylazine/ketamine anesthesia) (A/J mice [2]; 80 μmol/Kg oral): 35.5%
- fold less pro-emetic than rolipram (A/J mice [2]; vs rolipram): at least 7 fold
